Data published in patent publication US20080249168A1, “Pharmaceutical composition for gout” (priority 2007, published 2008).
Entries after “also recorded” stand apart in the source; their conditions may differ.

Tests used:
normal kunmin mice = experiment: Influence of L-carnitine on serum uric acid level in normal Kunmin mouse; assay type: in vivo; conditions: 300 mg/kg
Experimental: (§1) Fifty healthy kunmin Mouse (weight of 18-22 grams, male) were randomly divided into 5 groups, which are positive control group, negative control group, and small (250 mg/kg), medium (500 mg/kg) and large (1000 mg/kg) doses of 1-carnitine groups. The solvent for all solutions is 0.5% of sodium carboxymethyl cellulose (CMC—Na), with peritoneal injection in dose of 0.1 ml/10 g for all animals. For […], same dose of 0.5% of CMC—Na solution was injected. One hour after injection of inducer, blood samples were taken from eyeball, stet at room temperature for about one hour, centrifugation at 4000 r.p.m for 10 mins, supernatant was transferred to fresh tube for biochemical test of serum uric acid. Thirty healthy kunmin mouse (weight of 18-22 grams, male) were randomly divided into 3 groups, which are positive control group, negative control group, and 1-carnitine (300 mg/k) group. Others method was same as example 1.

[1] = tested on: hyperuricemia model of Kunmin mouse; experiment: Influence of l-carnitine on serum uric acid in hyperuricemia model of Kunmin mouse (oteracil potassium as inducer); assay type: in vivo; conditions: for serum uric acid value (X ± S): peritoneal injection, blood one hour after injection of inducer, P < 0.01 vs negative control
Experimental: as §1, with “acid.” for “acid. Thirty healthy kunmin mouse (weight of 18-22 grams, male) were randomly divided into 3 groups, which are positive control group, negative control group, and 1-carnitine (300 mg/k) group. Others method was same as example 1.”
The efficacy of the composition described in the present invention is clearly shown in Example 1, where uricase inhibitor oteracil potassium is used as model inducer to induce hyperuricemia in Kunmin mouse, and administered Levocarnitine to observe novel pharmacological effect on the model.

In the case of `C[N+](C)(C)C[C@H](O)CC(=O)[O-]` [L-Carnitine, Levocarnitine (L-carnitine)], the “effect on uric acid level (in words)” value (normal kunmin mice) is reported as “no effect on uric acid level”, the “serum uric acid value (X ± S)” value (normal kunmin mice; P > 0.05 vs normal positive control group) is reported as 76.9 ± 30.77 and the “effect on uric acid level (in words)” value (normal kunmin mice; listed as 1-carnitine) is reported as “not affecting uric acid level”. The “serum uric acid value (X ± S)” value ([1]; 250 mg/kg (small dose)) was 140.6 ± 51.55, the “serum uric acid value (X ± S)” value ([1]; 500 mg/kg (medium dose)) was 130.1 ± 34.8 and the “serum uric acid value (X ± S)” value ([1]; 1000 mg/kg (large dose)) was 131.7 ± 24.79. The “effect on serum uric acid level (in words)” value ([1]; dose 250-1000 mg/kg) was “reduced serum uric acid level of model animal group significantly; also recorded: reduced the uric acid level significantly”.
